Here are results for 20 molecules from patent US7671054B1, “Reverse-turn mimetics and method relating thereto” (Choongwae Pharma Corporation, priority 2001, dated 2010).

One test has as its system SW480 cells. The test can be described thus: Growth inhibition assay (MTS). It is filed as cell-based. Particulars: Homo sapiens, SW480, 48 h, Example 21; SW480 cells, 48 hours treatment, MTS; read-out: Growth Inhibition (GI50, uM) SW480. A digest of the protocol: (§1)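 Cells seeded at 10^4 per well, grown 24 h at 37° C, then exposed to compound at various concentrations for 48 hours. MTS added for 2 h; absorbance at 490 nm gave viability, with cytotoxicity calculated per concentration against pre-treatment reading.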
A word on the GI50: it is the concentration at which growth is held to half of that of the control. In the case of `C=CC[C@@H]1CC(=O)N2[C@H](CN(Cc3cccc(OC)c3OC)C(=O)[C@@H]2Cc2ccc(O)cc2)N1C(=O)NCc1ccccc1`, the GI50 worked out at 4.1 µM.

Staying with this test, now noted: Homo sapiens, SW480, 48 h, Table 5; SW480 cells, 48 hours treatment, MTS; read-out: Growth Inhibition (GI50, uM) SW480.
In the case of `CN(Cc1ccccc1N)c1cccc(CN2C[C@H]3N(C(=O)CN(C)N3C(=O)NCc3ccccc3)[C@@H](Cc3ccc(O)cc3)C2=O)c1` [Compound 65], the 50% growth inhibitory concentration (GI50) is 7.3 µM.

Regarding `CN(c1cccc(CN2C[C@H]3N(C(=O)CN(C)N3C(=O)NCc3ccccc3)[C@@H](Cc3ccc(O)cc3)C2=O)c1)C1CC1` [Compound 36], the GI50 stood at 21.9 ± 2.3 µM.

With `CN(Cc1ccccc1)c1cccc(CN2C[C@H]3N(C(=O)CN(C)N3C(=O)NCc3ccccc3)[C@@H](Cc3ccc(O)cc3)C2=O)c1` [Compound 56], the 50% growth inhibitory concentration (GI50) turned out to be 10.8 µM.

Take `CCN1CC(=O)N2[C@@H](Cc3ccc(O)cc3)C(=O)N(Cc3cccc4cccnc34)C[C@@H]2N1C(=O)NCc1ccccc1` [Compound 93]: the GI50 came out at 1.9 ± 0.4 µM.

Consider `C=CCN1CC(=O)N2[C@@H](Cc3ccc(O)cc3)C(=O)N(Cc3ccc(Cl)c4cccnc34)C[C@@H]2N1C(=O)NCc1ccccc1` [Compound 109], for which the 50% growth inhibitory concentration (GI50) worked out at 1.3 ± 0.3 µM.

With `C=CCN1CC(=O)N2[C@@H](Cc3ccc(O)cc3)C(=O)N(Cc3cccc4sc(N5CCCCC5)nc34)C[C@@H]2N1C(=O)NCc1ccccc1` [Compound 188], the GI50 came out at 1.6 ± 0.2 µM.

On to `C[C@@H](c1ccc(Cl)c2cccnc12)N1CC2N(C(=O)CN(C)N2C(=O)NCc2ccccc2)[C@@H](Cc2ccc(O)cc2)C1=O` (stereo partly shown) [Compound 166], for which the concentration for 50% growth inhibition (GI50) came to 27.9 ± 4.7 µM.

As to `C=CCN1CC(=O)N2[C@@H](Cc3ccc(O)cc3)C(=O)N([C@@H](C)c3cccc4cccnc34)C[C@@H]2N1C(=O)NCc1ccccc1` [Compound 160], the GI50 amounted to 13.7 ± 0.5 µM.

For the molecule `CN1CC(=O)N2[C@@H](Cc3ccc(NC=O)cc3)C(=O)N(Cc3cccc4ccccc34)C[C@@H]2N1C(=O)NCc1ccccc1` [Compound 44], the 50% growth inhibitory concentration (GI50) was found to be 3.8 ± 0.4 µM.

For `CCN(CC)c1cc(F)ccc1[C@H](C)N1C[C@H]2N(C(=O)CN(C)N2C(=O)NCc2ccccc2)[C@@H](Cc2ccc(O)cc2)C1=O` [Compound 41], the 50% growth inhibitory concentration (GI50) was 34.4 ± 9.6 µM.

For `CN1CC(=O)N2[C@@H](Cc3ccc(O)cc3)C(=O)N(Cc3cccc4nn(CCN5CCOCC5)cc34)C[C@@H]2N1C(=O)NCc1ccccc1` [Compound 75], the GI50 was found to be 2 ± 0.1 µM.

Turning to `C#CCN1CC(=O)N2[C@@H](Cc3ccc(O)cc3)C(=O)N(Cc3ccc4c(c3)OCCN4C)C[C@@H]2N1C(=O)NCc1ccccc1` [Compound 118], the GI50 came out at 21.2 ± 1.5 µM.

Consider `C=CCN1CC(=O)N2[C@@H](Cc3ccc(O)cc3)C(=O)N(Cc3cccc(N(C)C(=O)CCCCC)c3)C[C@@H]2N1C(=O)NCc1ccccc1` [Compound 164], for which the concentration for 50% growth inhibition (GI50) was 3 ± 0.3 µM.

For `CCN1CC(=O)N2[C@@H](Cc3ccc(O)cc3)C(=O)N(Cc3ccc(Cl)c(N(C)C)c3)C[C@@H]2N1C(=O)NCc1ccccc1` [Compound 97], the GI50 amounted to 7.1 ± 1 µM.

As to `C[C@H](c1ccc(F)c(N(C)C)c1)N1C[C@H]2N(C(=O)CN(C)N2C(=O)NCc2ccccc2)[C@@H](Cc2ccc(O)cc2)C1=O` [Compound 37], the concentration for 50% growth inhibition (GI50) came out at 10.4 ± 0.8 µM.

Regarding `COC(=O)c1ccccc1Cn1ncc2c(CN3C[C@H]4N(C(=O)CN(C)N4C(=O)NCc4ccccc4)[C@@H](Cc4ccc(O)cc4)C3=O)cccc21` [Compound 74], the GI50 came to 1.3 ± 0.4 µM.

Consider `C=CCN1CC(=O)N2[C@@H](Cc3ccc(O)cc3)C(=O)N(Cc3ccccc3)C[C@@H]2N1C(=O)NCc1ccc(Cl)c(Cl)c1` [Compound 177], for which the GI50 was 1.8 ± 0.1 µM.

Take `CN1CC(=O)N2[C@@H](Cc3ccc(O)cc3)C(=O)N(Cc3cccc4cn(Cc5cccc(N)c5)nc34)C[C@@H]2N1C(=O)NCc1ccccc1` [Compound 66]: the 50% growth inhibitory concentration (GI50) came out at 3 ± 0.3 µM.

For the molecule `CC(C)N(C)c1cc(CN2C[C@H]3N(C(=O)CN(C)N3C(=O)NCc3ccccc3)[C@@H](Cc3ccc(O)cc3)C2=O)ccc1Cl` [Compound 33], the GI50 was over 50 µM.

The next test concerns HCT116 cells. The test can be described thus: Growth inhibition assay (MTS). It is filed as cell-based. Particulars: Homo sapiens, HCT-116, 48 h, Example 21; HCT116 cells, 48 hours treatment, MTS; read-out: Growth Inhibition (GI50, uM) HCT116. A digest of the protocol:
as §1
As for `C=CC[C@@H]1CC(=O)N2[C@H](CN(Cc3cccc(OC)c3OC)C(=O)[C@@H]2Cc2ccc(O)cc2)N1C(=O)NCc1ccccc1`, the GI50 was determined as 4.91 µM.

Still in this test, the particulars now being: Homo sapiens, HCT-116, 48 h, Table 5; HCT116 cells, 48 hours treatment, MTS; read-out: Growth Inhibition (GI50, uM) HCT116.
On to `CN(Cc1ccccc1N)c1cccc(CN2C[C@H]3N(C(=O)CN(C)N3C(=O)NCc3ccccc3)[C@@H](Cc3ccc(O)cc3)C2=O)c1` [Compound 65], for which the concentration for 50% growth inhibition (GI50) worked out at 4.7 µM.

As to `CN(c1cccc(CN2C[C@H]3N(C(=O)CN(C)N3C(=O)NCc3ccccc3)[C@@H](Cc3ccc(O)cc3)C2=O)c1)C1CC1` [Compound 36], the GI50 was 12.7 ± 1.3 µM.

In the case of `CN(Cc1ccccc1)c1cccc(CN2C[C@H]3N(C(=O)CN(C)N3C(=O)NCc3ccccc3)[C@@H](Cc3ccc(O)cc3)C2=O)c1` [Compound 56], the GI50 was determined as 9.1 µM.

Turning to `CCN1CC(=O)N2[C@@H](Cc3ccc(O)cc3)C(=O)N(Cc3cccc4cccnc34)C[C@@H]2N1C(=O)NCc1ccccc1` [Compound 93], the GI50 was 1.1 ± 0.1 µM.

With `C=CCN1CC(=O)N2[C@@H](Cc3ccc(O)cc3)C(=O)N(Cc3ccc(Cl)c4cccnc34)C[C@@H]2N1C(=O)NCc1ccccc1` [Compound 109], the concentration for 50% growth inhibition (GI50) is 1.1 ± 0.1 µM.

With `C=CCN1CC(=O)N2[C@@H](Cc3ccc(O)cc3)C(=O)N(Cc3cccc4sc(N5CCCCC5)nc34)C[C@@H]2N1C(=O)NCc1ccccc1` [Compound 188], the 50% growth inhibitory concentration (GI50) is 1.8 ± 0.2 µM.

As to `C[C@@H](c1ccc(Cl)c2cccnc12)N1CC2N(C(=O)CN(C)N2C(=O)NCc2ccccc2)[C@@H](Cc2ccc(O)cc2)C1=O` (stereo partly shown) [Compound 166], the 50% growth inhibitory concentration (GI50) came to 25.2 ± 3.2 µM.

In the case of `C=CCN1CC(=O)N2[C@@H](Cc3ccc(O)cc3)C(=O)N([C@@H](C)c3cccc4cccnc34)C[C@@H]2N1C(=O)NCc1ccccc1` [Compound 160], the GI50 was 10.1 ± 1.3 µM.

With `CN1CC(=O)N2[C@@H](Cc3ccc(NC=O)cc3)C(=O)N(Cc3cccc4ccccc34)C[C@@H]2N1C(=O)NCc1ccccc1` [Compound 44], the 50% growth inhibitory concentration (GI50) is 4.2 ± 0.5 µM.

Take `CCN(CC)c1cc(F)ccc1[C@H](C)N1C[C@H]2N(C(=O)CN(C)N2C(=O)NCc2ccccc2)[C@@H](Cc2ccc(O)cc2)C1=O` [Compound 41]: the GI50 worked out at 14.7 ± 2.6 µM.

Turning to `CN1CC(=O)N2[C@@H](Cc3ccc(O)cc3)C(=O)N(Cc3cccc4nn(CCN5CCOCC5)cc34)C[C@@H]2N1C(=O)NCc1ccccc1` [Compound 75], the GI50 stood at 4.5 ± 0.4 µM.

Turning to `C#CCN1CC(=O)N2[C@@H](Cc3ccc(O)cc3)C(=O)N(Cc3ccc4c(c3)OCCN4C)C[C@@H]2N1C(=O)NCc1ccccc1` [Compound 118], the concentration for 50% growth inhibition (GI50) turned out to be 23.2 ± 2.8 µM.

For the molecule `C=CCN1CC(=O)N2[C@@H](Cc3ccc(O)cc3)C(=O)N(Cc3cccc(N(C)C(=O)CCCCC)c3)C[C@@H]2N1C(=O)NCc1ccccc1` [Compound 164], the GI50 worked out at 2.9 ± 0.4 µM.

On to `CCN1CC(=O)N2[C@@H](Cc3ccc(O)cc3)C(=O)N(Cc3ccc(Cl)c(N(C)C)c3)C[C@@H]2N1C(=O)NCc1ccccc1` [Compound 97], for which the GI50 was 5.2 ± 0.5 µM.

Regarding `C[C@H](c1ccc(F)c(N(C)C)c1)N1C[C@H]2N(C(=O)CN(C)N2C(=O)NCc2ccccc2)[C@@H](Cc2ccc(O)cc2)C1=O` [Compound 37], the GI50 stood at 9.2 ± 0.9 µM.

Regarding `COC(=O)c1ccccc1Cn1ncc2c(CN3C[C@H]4N(C(=O)CN(C)N4C(=O)NCc4ccccc4)[C@@H](Cc4ccc(O)cc4)C3=O)cccc21` [Compound 74], the 50% growth inhibitory concentration (GI50) is 2.4 ± 0.3 µM.

As to `C=CCN1CC(=O)N2[C@@H](Cc3ccc(O)cc3)C(=O)N(Cc3ccccc3)C[C@@H]2N1C(=O)NCc1ccc(Cl)c(Cl)c1` [Compound 177], the GI50 came to 1.6 ± 0.1 µM.

In the case of `CN1CC(=O)N2[C@@H](Cc3ccc(O)cc3)C(=O)N(Cc3cccc4cn(Cc5cccc(N)c5)nc34)C[C@@H]2N1C(=O)NCc1ccccc1` [Compound 66], the GI50 was 5.8 ± 0.3 µM.

As to `CC(C)N(C)c1cc(CN2C[C@H]3N(C(=O)CN(C)N3C(=O)NCc3ccccc3)[C@@H](Cc3ccc(O)cc3)C2=O)ccc1Cl` [Compound 33], the GI50 was 28.6 ± 2 µM.
